From ChEMBL document CHEMBL1201862, “PubChem BioAssay data set” (2004)
The source made the active and inactive calls.

Key:
[1] = biological target: T1, Dual specificity protein phosphatase 3 (Homo sapiens, UniProt P51452); experiment: MOA VHR1 Fluorescent secondary assay for identification of redox-state modulating compounds. [Related pubchem assays (depositor defined):AID1654, AID1661, AID1878, AID1957]
[2] = biological target: T2, Alkaline phosphatase, tissue-nonspecific isozyme (Homo sapiens, UniProt P05186); experiment: TNAP enzyme inhibition by screening hits, dose response, selectivity assay for mouse IAP inhibitor project, biochemical, human TNAP, uHTS hits (AID 488906); assay type: functional
T2 sequence (P05186 whole entry): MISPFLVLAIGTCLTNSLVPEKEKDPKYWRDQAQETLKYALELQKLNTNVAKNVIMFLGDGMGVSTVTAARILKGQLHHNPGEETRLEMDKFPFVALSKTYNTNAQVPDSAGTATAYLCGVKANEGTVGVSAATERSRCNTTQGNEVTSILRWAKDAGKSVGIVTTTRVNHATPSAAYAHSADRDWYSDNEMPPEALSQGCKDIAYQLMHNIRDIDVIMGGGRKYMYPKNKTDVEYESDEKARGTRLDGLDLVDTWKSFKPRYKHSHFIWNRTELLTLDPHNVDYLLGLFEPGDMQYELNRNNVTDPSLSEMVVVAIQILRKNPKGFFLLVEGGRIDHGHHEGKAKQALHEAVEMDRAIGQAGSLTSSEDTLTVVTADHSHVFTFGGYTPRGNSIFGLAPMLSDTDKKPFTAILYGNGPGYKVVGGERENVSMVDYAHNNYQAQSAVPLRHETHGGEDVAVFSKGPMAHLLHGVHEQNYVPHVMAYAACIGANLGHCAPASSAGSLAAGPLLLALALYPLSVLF

Cytochrome P450 2C9 = Cytochrome P450 2C9 (Homo sapiens, UniProt P11712)
[3] = biological target: T3, Dual specificity protein phosphatase 6 (Rattus norvegicus, UniProt Q64346); assay type: functional
T3 sequence (Q64346 whole entry): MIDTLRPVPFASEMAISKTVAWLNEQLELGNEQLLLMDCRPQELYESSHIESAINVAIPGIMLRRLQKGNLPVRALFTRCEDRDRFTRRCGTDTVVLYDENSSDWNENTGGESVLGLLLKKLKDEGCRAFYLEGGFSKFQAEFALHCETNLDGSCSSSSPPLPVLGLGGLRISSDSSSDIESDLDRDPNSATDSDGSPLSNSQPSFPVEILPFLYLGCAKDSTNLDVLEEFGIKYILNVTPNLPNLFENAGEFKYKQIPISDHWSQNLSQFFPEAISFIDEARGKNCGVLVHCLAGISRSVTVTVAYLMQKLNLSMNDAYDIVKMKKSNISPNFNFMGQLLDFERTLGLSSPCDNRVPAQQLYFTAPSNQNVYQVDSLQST

[4] = biological target: Glyceraldehyde-3-phosphate dehydrogenase (Homo sapiens, UniProt P04406)
[5] = biological target: T4, Tyrosine-protein phosphatase non-receptor type 7 (Homo sapiens, UniProt P35236); assay type: functional
T4 sequence (P35236 whole entry): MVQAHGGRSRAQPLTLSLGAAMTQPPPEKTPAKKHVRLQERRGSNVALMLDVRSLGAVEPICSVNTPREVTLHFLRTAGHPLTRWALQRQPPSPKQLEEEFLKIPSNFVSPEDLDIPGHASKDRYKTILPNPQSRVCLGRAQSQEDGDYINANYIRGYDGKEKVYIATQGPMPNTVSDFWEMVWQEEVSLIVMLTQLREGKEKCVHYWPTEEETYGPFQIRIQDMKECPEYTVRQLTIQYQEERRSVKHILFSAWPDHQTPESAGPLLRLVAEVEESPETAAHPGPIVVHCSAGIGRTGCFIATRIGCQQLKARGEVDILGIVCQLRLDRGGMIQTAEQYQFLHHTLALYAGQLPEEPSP

Cytochrome P450 1A2 = biological target: T5, Cytochrome P450 1A2 (Homo sapiens, UniProt P05177);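 also: PubChem cytochrome P450 panel assay, CYP1A2 panel member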
T5 sequence (P05177 whole entry): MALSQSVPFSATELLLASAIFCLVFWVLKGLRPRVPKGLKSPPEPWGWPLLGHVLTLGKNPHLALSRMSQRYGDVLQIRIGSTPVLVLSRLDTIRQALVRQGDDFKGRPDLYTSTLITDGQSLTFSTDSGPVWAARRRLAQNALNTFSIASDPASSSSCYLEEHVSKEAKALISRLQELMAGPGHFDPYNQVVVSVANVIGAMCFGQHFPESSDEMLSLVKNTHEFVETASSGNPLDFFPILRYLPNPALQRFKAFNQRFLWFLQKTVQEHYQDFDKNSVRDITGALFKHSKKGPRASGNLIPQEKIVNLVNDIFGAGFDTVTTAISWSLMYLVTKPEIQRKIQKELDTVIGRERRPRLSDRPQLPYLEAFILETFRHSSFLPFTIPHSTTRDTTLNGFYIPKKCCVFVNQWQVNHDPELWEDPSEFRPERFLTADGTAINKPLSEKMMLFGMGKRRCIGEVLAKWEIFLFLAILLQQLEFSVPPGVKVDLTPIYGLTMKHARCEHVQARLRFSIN

[6] = biological target: Intestinal-type alkaline phosphatase (Mus musculus, UniProt P24822); experiment: PubChem AID 488785; assay type: functional
[7] = biological target: T1, Dual specificity protein phosphatase 3; experiment: SAR VHR1 Fluorescent Assay for In Vitro dose response studies. [Related pubchem assays (depositor defined):AID1654, AID1661, AID1878, AID1992, AID2004, AID2070, AID2085]; assay type: functional
[8] = biological target: T3, Dual specificity protein phosphatase 6
[9] = biological target: Induced myeloid leukemia cell differentiation protein Mcl-1 (Homo sapiens, UniProt Q07820); assay type: functional
[10] = biological target: Intestinal-type alkaline phosphatase (Homo sapiens, UniProt P09923); experiment: inhibition of human intestinal alkaline phosphatase – biochemical, dose response (AID 488876); assay type: functional
[11] = biological target: T4, Tyrosine-protein phosphatase non-receptor type 7; experiment: redox-active compounds inhibiting HePTP phosphatase – biochemical, fluorescence, mechanism study (AID 2068); assay type: functional
[12] = biological target: Beta-adrenergic receptor kinase 1 (Homo sapiens, UniProt P25098); experiment: aptamer displacement from bead-bound GRK2 – biochemical, cherry pick 1, bead flow cytometry, dose response (AID 504500)
DNA topoisomerase = DNA topoisomerase (Yersinia pestis, UniProt A0A2S9PM60); experiment: Yersinia topoisomerase I cleavage product accumulation – biochemical, cherry-pick, dose response (AID 588525)
[13] = biological target: Peroxisome proliferator-activated receptor gamma/Nuclear receptor corepressor 2 (Homo sapiens, UniProt P37231+Q9Y618); assay type: functional
[14] = biological target: Photoreceptor-specific nuclear receptor (Homo sapiens, UniProt Q9Y5X4); assay type: functional;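 also: potency for compounds that break the NR2E3 corepressor complex and count as activators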
[15] = CCR5-tropic HIV-1 fusion blockers – cell-based, CCR5-tropic Env, dose response (AID 2279); assay type: functional
HEK293 = experiment: membrane integrity loss in HEK cells – cell-based, fluorescence, cytotoxicity control for IDE activator project, dose response (AID 588440); assay type: functional; conditions: Homo sapiens;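 also: cytotoxicity by LDH release measuring loss of membrane integrity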
[16] = biological target: T6, Rac GTPase-activating protein 1 (Homo sapiens, UniProt Q9H0H5); experiment: blockers of MgcRacGAP-driven Rac1 GTP hydrolysis – biochemical, ADP Hunter fluorescence, primary and confirmatory, confirmation (AID 624330); assay type: functional
T6 sequence (Q9H0H5 whole entry): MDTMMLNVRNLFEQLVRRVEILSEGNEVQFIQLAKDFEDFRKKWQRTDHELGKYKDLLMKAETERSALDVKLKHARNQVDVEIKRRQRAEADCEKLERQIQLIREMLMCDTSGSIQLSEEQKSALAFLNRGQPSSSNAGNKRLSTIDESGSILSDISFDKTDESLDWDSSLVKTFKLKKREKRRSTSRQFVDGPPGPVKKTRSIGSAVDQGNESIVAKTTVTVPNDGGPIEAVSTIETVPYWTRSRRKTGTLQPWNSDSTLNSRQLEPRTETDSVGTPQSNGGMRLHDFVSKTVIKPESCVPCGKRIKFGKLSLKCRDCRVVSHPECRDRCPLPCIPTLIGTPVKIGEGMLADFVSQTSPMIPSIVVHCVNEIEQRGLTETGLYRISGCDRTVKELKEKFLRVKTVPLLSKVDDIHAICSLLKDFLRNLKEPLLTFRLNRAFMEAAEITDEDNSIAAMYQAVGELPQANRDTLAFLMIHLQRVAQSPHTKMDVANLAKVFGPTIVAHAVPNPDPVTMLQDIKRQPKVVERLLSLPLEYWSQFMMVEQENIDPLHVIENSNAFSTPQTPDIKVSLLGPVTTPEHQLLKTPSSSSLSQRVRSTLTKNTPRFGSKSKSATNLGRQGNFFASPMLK

ORF 73 = ORF 73 (Human herpesvirus 8, UniProt O40947); experiment: KSHV LANA DNA-binding disruption – biochemical, fluorescence polarization, cherry-picked samples, dose response (AID 504725); design: species or system Human gammaherpesvirus 8;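 also: fluorescence polarization of a labeled DNA duplex reporting LANA DNA binding; potency is for inhibitors that block LANA binding to the DNA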
HeLa = experiment: viability loss in HeLa cells – cell-based, 24 h, cherry-picked samples, cytotoxicity control, dose response (AID 504726); assay type: functional, Homo sapiens;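 also: potency for cytotoxicity as loss of luminescence signal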
Insulin-degrading enzyme [17] = biological target: T7, Insulin-degrading enzyme (Homo sapiens, UniProt P14735); experiment: cellular IDE activation of Abeta substrate cleavage – fluorescence polarization, HEK cells, dose response (AID 588439); assay type: functional, cell-based
T7 sequence (P14735 whole entry): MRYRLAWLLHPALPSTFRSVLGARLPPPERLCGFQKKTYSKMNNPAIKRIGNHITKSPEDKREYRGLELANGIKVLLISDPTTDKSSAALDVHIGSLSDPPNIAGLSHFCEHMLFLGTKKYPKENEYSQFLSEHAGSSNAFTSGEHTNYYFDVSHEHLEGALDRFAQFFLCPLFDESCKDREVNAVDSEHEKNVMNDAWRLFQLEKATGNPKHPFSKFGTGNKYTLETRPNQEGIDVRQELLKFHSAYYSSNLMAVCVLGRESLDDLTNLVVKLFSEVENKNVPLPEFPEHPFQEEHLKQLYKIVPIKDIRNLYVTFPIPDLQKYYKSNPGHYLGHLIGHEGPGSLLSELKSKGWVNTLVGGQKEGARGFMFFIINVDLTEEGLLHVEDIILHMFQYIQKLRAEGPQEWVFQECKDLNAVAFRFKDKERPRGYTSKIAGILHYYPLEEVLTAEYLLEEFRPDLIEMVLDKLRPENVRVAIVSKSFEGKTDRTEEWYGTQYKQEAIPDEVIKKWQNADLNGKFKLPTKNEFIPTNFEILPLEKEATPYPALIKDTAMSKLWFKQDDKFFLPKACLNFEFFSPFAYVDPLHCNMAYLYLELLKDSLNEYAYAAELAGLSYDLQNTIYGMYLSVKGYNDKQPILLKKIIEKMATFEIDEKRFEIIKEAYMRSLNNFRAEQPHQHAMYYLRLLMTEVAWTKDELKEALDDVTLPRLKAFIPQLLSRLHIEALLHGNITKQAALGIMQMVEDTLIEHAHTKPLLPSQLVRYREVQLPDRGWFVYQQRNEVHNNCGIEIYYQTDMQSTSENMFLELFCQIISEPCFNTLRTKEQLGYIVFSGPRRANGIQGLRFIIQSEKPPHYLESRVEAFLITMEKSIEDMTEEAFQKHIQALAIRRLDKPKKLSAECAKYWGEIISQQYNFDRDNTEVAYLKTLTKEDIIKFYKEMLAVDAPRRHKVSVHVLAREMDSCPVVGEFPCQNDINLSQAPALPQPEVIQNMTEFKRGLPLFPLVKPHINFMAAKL

[18] = biological target: T8, Tyrosyl-DNA phosphodiesterase 2 (Homo sapiens, UniProt O95551); experiment: potency against TDP2 phosphodiesterase activity – biochemical, epi absorbance, IC50, dose response (AID 743297)
T8 sequence (O95551 whole entry): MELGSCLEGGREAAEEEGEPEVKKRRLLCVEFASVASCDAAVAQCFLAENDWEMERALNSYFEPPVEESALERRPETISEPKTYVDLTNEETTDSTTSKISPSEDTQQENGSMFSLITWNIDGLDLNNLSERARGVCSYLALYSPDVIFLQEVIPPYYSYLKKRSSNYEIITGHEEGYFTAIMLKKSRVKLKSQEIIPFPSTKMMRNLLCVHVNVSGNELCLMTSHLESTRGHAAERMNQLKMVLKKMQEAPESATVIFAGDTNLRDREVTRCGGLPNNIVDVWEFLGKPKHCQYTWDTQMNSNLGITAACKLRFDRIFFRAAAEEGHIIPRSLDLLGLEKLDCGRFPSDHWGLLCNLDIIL

Insulin-degrading enzyme [19] = biological target: T7, Insulin-degrading enzyme; experiment: recombinant IDE activation, cell-free – biochemical, fluorescence polarization, counter-screen for IDE activator project, dose response (AID 588681)
Phospholipase D2 = Phospholipase D2 (Homo sapiens, UniProt O14939); experiment: cellular phospholipase D2 inhibition IC50 – cell-based, dose response (AID 602147); assay type: functional;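 also: cellular assay in HEK293 cells overexpressing GFP-tagged PLD2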
Phospholipase D1 = Phospholipase D1 (Homo sapiens, UniProt Q13393); experiment: cellular phospholipase D1 inhibition IC50 – cell-based, dose response (AID 602151); assay type: functional;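 also: cellular PLD1 assay in Calu-1 cells stimulated with PMA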
Phospholipase A2 = Phospholipase A2 (Homo sapiens, UniProt P04054); assay type: functional;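 also: confirmatory dose-response counterscreen on phospholipase A2, testing hits that came from an ultra-high-throughput screen for ATG4B inhibitors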
cells = assay type: functional
Cysteine protease ATG4B = Cysteine protease ATG4B (Homo sapiens, UniProt Q9Y4P1); assay type: functional;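 also: Fluorescence-based dose-response confirmation assay measuring inhibition of ATG4B activity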
Chain of Cysteine protease ATG4B (Q9Y4P1 whole entry): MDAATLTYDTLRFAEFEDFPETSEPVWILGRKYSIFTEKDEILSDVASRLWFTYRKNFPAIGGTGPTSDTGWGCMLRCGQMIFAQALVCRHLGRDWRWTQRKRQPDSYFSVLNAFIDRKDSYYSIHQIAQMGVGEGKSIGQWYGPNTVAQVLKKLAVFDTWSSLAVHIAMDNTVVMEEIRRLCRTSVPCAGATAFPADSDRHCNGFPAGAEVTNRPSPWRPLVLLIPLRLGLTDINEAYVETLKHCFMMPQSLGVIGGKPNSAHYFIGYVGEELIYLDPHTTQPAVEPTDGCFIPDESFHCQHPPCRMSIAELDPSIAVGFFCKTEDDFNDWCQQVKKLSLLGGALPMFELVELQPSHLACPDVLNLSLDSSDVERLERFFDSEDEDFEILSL

T1 sequence (P51452 whole entry): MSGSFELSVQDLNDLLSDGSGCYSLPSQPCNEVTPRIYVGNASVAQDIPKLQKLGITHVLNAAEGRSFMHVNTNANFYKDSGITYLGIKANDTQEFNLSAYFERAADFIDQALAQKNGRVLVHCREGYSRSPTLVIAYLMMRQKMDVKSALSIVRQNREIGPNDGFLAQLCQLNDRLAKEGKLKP
Chain of Phospholipase D1 (Q13393 whole entry): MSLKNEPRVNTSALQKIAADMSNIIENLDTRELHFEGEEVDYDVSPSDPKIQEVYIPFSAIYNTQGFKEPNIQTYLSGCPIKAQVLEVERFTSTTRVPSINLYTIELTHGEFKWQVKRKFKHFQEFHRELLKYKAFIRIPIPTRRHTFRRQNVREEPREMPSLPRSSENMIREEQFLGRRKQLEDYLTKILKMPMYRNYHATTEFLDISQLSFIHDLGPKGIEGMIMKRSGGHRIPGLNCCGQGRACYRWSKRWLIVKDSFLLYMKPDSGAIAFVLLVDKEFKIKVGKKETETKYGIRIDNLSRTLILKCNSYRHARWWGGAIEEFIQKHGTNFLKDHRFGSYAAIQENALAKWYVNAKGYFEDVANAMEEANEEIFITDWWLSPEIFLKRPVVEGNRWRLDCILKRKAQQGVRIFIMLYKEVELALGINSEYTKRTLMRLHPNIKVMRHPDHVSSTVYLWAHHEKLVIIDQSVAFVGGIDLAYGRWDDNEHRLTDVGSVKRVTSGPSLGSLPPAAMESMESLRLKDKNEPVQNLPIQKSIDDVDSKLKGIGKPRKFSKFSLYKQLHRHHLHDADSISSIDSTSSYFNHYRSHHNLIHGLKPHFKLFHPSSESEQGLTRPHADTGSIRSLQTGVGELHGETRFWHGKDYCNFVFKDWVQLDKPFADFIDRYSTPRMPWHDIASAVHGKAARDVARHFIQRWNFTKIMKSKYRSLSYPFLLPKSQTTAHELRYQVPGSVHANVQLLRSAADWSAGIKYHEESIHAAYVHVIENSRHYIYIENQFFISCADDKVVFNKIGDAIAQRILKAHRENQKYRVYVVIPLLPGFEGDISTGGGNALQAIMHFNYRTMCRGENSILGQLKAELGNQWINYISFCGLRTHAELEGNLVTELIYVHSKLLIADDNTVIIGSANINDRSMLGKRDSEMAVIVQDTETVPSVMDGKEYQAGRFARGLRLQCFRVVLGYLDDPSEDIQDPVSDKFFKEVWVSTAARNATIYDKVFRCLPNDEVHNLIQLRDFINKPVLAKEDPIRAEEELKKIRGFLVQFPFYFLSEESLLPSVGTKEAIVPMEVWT
Chain of Beta-adrenergic receptor kinase 1 (P25098 whole entry): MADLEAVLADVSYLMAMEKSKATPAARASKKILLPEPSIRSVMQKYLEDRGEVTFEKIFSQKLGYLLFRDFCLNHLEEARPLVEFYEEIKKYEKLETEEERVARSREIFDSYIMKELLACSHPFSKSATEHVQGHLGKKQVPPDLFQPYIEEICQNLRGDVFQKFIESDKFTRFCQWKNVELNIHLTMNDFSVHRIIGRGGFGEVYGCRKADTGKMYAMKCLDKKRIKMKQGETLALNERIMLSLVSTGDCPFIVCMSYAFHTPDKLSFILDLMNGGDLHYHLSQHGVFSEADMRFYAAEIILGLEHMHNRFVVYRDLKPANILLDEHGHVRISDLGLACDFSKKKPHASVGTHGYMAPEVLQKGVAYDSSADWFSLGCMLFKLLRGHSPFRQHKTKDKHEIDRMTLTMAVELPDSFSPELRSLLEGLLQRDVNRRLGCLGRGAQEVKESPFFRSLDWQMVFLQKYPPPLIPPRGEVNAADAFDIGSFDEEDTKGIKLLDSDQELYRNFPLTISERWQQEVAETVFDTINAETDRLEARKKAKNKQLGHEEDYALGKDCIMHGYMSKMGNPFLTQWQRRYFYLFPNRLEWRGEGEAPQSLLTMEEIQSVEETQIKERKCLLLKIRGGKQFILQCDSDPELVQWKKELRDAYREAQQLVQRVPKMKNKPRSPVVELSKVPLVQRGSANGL
Chain of DNA topoisomerase (A0A2S9PM60 whole entry): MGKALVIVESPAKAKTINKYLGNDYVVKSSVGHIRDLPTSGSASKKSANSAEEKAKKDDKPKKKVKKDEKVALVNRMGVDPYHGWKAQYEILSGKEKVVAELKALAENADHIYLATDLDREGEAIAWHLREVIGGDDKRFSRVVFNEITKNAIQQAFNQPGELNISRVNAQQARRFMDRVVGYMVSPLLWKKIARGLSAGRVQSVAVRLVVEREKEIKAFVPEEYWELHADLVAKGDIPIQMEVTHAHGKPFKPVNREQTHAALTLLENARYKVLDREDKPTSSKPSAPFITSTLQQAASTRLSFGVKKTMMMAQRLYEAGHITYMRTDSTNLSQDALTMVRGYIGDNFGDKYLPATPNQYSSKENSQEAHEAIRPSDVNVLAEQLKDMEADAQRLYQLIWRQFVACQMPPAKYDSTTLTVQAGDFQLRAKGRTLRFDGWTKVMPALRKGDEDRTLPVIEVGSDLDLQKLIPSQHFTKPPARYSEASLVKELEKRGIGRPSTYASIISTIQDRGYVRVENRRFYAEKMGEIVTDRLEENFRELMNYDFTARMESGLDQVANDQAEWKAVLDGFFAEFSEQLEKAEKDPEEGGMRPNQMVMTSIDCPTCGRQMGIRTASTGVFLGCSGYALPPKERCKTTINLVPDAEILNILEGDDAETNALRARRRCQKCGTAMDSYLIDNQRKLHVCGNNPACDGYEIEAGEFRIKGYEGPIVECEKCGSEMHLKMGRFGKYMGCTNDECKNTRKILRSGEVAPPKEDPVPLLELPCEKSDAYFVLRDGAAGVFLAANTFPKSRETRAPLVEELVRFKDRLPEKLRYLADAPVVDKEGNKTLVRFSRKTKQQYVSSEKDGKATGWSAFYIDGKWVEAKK
Chain of Induced myeloid leukemia cell differentiation protein Mcl-1 (Q07820 whole entry): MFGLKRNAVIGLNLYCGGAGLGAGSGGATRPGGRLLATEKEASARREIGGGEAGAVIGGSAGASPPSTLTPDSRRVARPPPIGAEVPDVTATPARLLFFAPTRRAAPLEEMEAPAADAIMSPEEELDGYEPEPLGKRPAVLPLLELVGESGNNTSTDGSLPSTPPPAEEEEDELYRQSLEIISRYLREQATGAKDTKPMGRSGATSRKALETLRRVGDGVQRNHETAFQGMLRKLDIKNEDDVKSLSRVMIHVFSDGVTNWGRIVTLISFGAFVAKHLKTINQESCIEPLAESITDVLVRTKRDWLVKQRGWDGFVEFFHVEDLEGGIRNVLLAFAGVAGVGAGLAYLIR
Chain of Photoreceptor-specific nuclear receptor (Q9Y5X4 whole entry, the tested form may be a part): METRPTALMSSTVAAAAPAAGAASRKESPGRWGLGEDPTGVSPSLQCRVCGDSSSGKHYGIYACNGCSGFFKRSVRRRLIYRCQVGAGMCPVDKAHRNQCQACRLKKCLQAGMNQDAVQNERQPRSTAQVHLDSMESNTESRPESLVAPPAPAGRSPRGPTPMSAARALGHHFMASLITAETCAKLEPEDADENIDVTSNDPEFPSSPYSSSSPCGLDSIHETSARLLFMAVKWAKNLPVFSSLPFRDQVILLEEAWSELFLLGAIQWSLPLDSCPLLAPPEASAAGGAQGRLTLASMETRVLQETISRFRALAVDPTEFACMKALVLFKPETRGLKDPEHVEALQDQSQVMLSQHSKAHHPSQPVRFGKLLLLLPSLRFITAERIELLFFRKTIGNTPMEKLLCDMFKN
Chain of Intestinal-type alkaline phosphatase (Homo sapiens, UniProt P09923) (P09923 whole entry): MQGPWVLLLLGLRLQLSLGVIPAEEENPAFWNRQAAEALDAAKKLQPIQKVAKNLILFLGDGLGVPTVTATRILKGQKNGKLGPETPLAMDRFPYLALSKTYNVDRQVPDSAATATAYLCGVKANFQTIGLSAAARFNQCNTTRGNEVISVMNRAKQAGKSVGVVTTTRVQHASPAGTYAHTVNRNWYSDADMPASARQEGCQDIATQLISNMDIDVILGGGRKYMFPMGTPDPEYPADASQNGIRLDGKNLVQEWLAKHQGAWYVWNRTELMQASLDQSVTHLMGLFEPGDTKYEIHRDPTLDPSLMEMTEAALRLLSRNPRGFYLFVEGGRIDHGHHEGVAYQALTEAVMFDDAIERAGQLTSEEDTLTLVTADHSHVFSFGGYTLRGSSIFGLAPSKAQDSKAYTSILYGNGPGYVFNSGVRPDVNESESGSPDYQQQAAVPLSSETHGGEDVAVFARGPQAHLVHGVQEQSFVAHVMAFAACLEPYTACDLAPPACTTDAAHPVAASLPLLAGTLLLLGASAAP
Chain of Glyceraldehyde-3-phosphate dehydrogenase (P04406 whole entry): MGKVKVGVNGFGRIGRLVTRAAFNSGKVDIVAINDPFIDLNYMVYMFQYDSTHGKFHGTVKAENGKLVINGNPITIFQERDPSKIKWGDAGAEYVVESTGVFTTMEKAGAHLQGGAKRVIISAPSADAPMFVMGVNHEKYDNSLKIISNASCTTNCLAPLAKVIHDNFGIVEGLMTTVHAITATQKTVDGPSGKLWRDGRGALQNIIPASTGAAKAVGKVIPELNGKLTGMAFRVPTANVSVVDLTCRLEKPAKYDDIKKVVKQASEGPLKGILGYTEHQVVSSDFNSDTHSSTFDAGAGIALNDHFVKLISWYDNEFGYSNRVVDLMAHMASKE
Chain of Phospholipase A2 (P04054 whole entry): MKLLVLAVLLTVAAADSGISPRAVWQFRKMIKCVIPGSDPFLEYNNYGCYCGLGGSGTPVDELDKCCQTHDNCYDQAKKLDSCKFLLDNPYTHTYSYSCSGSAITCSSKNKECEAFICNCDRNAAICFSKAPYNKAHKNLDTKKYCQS

O=C(O)c1ccccc1-c1ccc(/C=c2\sc3nc4cc(Br)cnc4n3c2=O)o1
IC50 [1]: 0.308 µM (active)
IC50 [2]: 31.7 µM (active)
AC50 (Cytochrome P450 2C9): 20 µM (inconclusive)
IC50 [3]: 4.92 µM (active)
IC50 [4]: 2.31 µM (active)
IC50 [5]: 1.26 µM (active)
AC50 (Cytochrome P450 1A2): 17.8 µM (inconclusive)
IC50 [6]: 6.36 µM (active)
IC50 [7]: 1.25 µM (active)
IC50 [8]: 6.8 µM (active)
IC50 [9]: 3.32 µM (active)
IC50 [10]: > 100 µM (inactive)
IC50 [11]: 0.159 µM (active)
EC50 [12]: 2.39 µM (active)

Cc1cc(N2C(=O)C(O)=C(C(=O)c3cc4ccccc4o3)C2c2cccc(Br)c2)no1 (stereo not given)
AC50 (DNA topoisomerase): 3.24 µM (active)
IC50 [13]: 1.97 µM (active)
IC50 [14]: > 39.8 µM (not active)
IC50 [15]: > 50 µM (active)

C[n+]1c2cc(N)ccc2cc2ccc(N)cc21
IC50 (HEK293): > 89.2 µM (inactive)
IC50 [16]: 97.5 µM (active)
AC50 (ORF 73): 0.285 µM (active)
AC50 (HeLa): 7.94 µM (active)
EC50 (Insulin-degrading enzyme [17]): > 54.7 µM (inactive)
IC50 [18]: > 128 µM (inactive)
EC50 (Insulin-degrading enzyme [19]): > 54.7 µM (inactive)

C[C@@H](CN1CCC(n2c(=O)[nH]c3cc(I)ccc32)CC1)NC(=O)c1ccc(Cl)cc1
IC50 (Phospholipase D2): 2.4 µM (active)
IC50 (Phospholipase D1): 0.016 µM (active)

O=[N+]([O-])c1cc2oc3c(c2c(/C=N/Cc2ccccc2)c1O)CCCC3
IC50 (Phospholipase A2): 0.502 µM (active)
IC50 (cells): 20.6 µM (active)
IC50 (Cysteine protease ATG4B): 1.28 µM (active)
